Reference: patent US10087148B2, “Quinazolines as biogenic amine transport modulators” (THE UNITED STATES OF AMERICA AS REPRESENTED BY THE …, priority 2014, dated 2018)

What was measured:
DAT = DAT (Rattus norvegicus (Rat), UniProt P23977); test: Inhibition of [3H]WIN35428 binding to rat caudate DAT; details: [3H]WIN35428, mean ± S.D., n = 3; for IC50: unit as printed in head (text gives 1100 nM where table prints 1.1)
Protocol: All of the test compounds were synthesized as described herein. […] The data from three experiments were pooled and fit to a dose-response curve equation (using KaleidaGraph; Synergy Software, Reading, Pa.) to yield an Emax and IC50 value. […] Selected compounds were also tested for their ability to inhibit [^3H]WIN35428 binding to rat caudate DAT.

[1] = target: dopamine transporter (DAT) (Rattus norvegicus (Rat), UniProt P23977); test: [3H]dopamine (DA) uptake inhibition in rat brain (caudate) synaptosomes; assay type: biochemical; details: for Emax: mean ± S.D., n = 3, read-out: DAT Uptake Emax; for DA Uptake Emax / EC50: rat caudate synaptosomes, 5 nM [3H]dopamine, mean ± SD
Protocol: Uptake inhibition assay for the dopamine transporter was conducted in rat brain synaptosomes as described elsewhere with minor modifications (Rothman et al., Synapse 39, 32-41 (2001)). Freshly removed caudate was homogenized in 10% ice-cold sucrose with 12 strokes of a hand-held Potter-Elvehjem homogenizer followed by centrifugation at 1000×g for 10 min. The supernatants were saved on ice and used immediately. Transporter activity was assessed using 5 nM [^3H]dopamine. The assay buffer was Krebs-phosphate buffer containing 154.4 mM NaCl, 2.9 mM KCl, 1.1 mM CaCl2, 0.83 mM MgCl2, 5 mM glucose, 1 mg/mL ascorbic acid, and 50 μM pargyline. The selectivity of the uptake assay for DAT was optimized by including 100 nM citalopram and 100 nM desipramine as blockers of SERT and NET in the sucrose solution and assay buffer. Uptake inhibition assays were conducted at 25° C. and were initiated by adding 100 μl of tissue to 900 μL assay buffer containing test drug and [^3H]dopamine. Test drugs were diluted in assay buffer containing 1 mg/mL bovine serum albumin. Nonspecific uptake was measured by incubating in the presence of 10 μM indatraline. The reactions were stopped after 15 minutes by rapid vacuum filtration with a cell harvester (BRANDEL) over GF/B filters (Whatman) presoaked in wash buffer maintained at 25° C. (10 mM Tris-HCl, pH 7.4/150 mM NaCl). Filters were rinsed with 6 mL wash buffer and retained tritium was quantified by a MicroBeta liquid scintillation counter (PerkinElmer) after overnight extraction in 0.6 mL of liquid scintillation cocktail (Cytoscint, ICN). The data from three experiments were pooled and fit to a dose-response curve equation (using Kaleidagraph), to yield an Emax and EC50 value.
All of the test compounds were synthesized as described herein. Next, 8-point dose-response curves were generated for each compound (1-20,000 nM) in the [^3H]DA uptake assay. The data from three experiments were pooled and fit to a dose-response curve equation (using KaleidaGraph; Synergy Software, Reading, Pa.) to yield an Emax and IC50 value. […] Selected compounds were also tested for their ability to inhibit [^3H]WIN35428 binding to rat caudate DAT.

[2] = target: serotonin transporter (SERT) (Rattus norvegicus (Rat), UniProt P31652); test: [3H]serotonin (5-HT) uptake inhibition in rat brain synaptosomes; assay type: biochemical; details: for Emax: mean ± S.D., n = 3, read-out: SERT Uptake Emax; for 5HT Uptake Emax / EC50: rat brain synaptosomes, 5 nM [3H]serotonin, mean ± SD
Protocol: Uptake inhibition assay for the serotonin transporter was conducted in rat brain synaptosomes as described elsewhere with minor modifications (Rothman et al., Synapse 39, 32-41 (2001)). Freshly removed whole brain minus cerebellum and caudate was homogenized in 10% ice-cold sucrose with 12 strokes of a hand-held Potter-Elvehjem homogenizer followed by centrifugation at 1000×g for 10 min. The supernatants were saved on ice and used immediately. Transporter activity at SERT was assessed using 5 nM [^3H]serotonin. The assay buffer was Krebs-phosphate buffer containing 154.4 mM NaCl, 2.9 mM KCl, 1.1 mM CaCl2, 0.83 mM MgCl2, 5 mM glucose, 1 mg/mL ascorbic acid, and 50 μM pargyline. […] Uptake inhibition assays were conducted at 25° C. and were initiated by adding 100 μL of tissue to 900 μL assay buffer containing test drug and [^3H]serotonin. Test drugs were diluted in assay buffer containing 1 mg/mL bovine serum albumin. Nonspecific uptake was measured by incubating in the presence of 10 μM indatraline. The reactions were stopped after 30 min by rapid vacuum filtration with a cell harvester (BRANDEL) over GF/B filters (Whatman) presoaked in wash buffer maintained at 25° C. (10 mM Tris-HCl, pH 7.4/150 mM NaCl). Filters were rinsed with 6 mL wash buffer and retained tritium was quantified by a MicroBeta liquid scintillation counter (PerkinElmer) after overnight extraction in 0.6 mL of liquid scintillation cocktail (Cytoscint, ICN). The data from three experiments were pooled and fit to a dose-response curve equation (using Kaleidagraph), to yield an Emax and EC50 value.

[3] = target: norepinephrine transporter (NET) (Rattus norvegicus, UniProt Q63380); test: [3H]norepinephrine (NE) uptake inhibition in rat brain synaptosomes; assay type: biochemical; details: for Emax: read-out: NET Uptake Emax; for IC50: read-out: NET Uptake IC50, mean ± S.D., n = 3; for NE Uptake Emax / EC50: rat brain synaptosomes, 10 nM [3H]norepinephrine, mean ± SD; for EC50: read-out: NE Uptake EC50
Protocol: Uptake inhibition assay for the norepinephrine transporter was conducted in rat brain synaptosomes as described elsewhere with minor modifications (Rothman et al., Synapse 39, 32-41 (2001)). Freshly removed whole brain minus cerebellum and caudate was homogenized in 10% ice-cold sucrose with 12 strokes of a hand-held Potter-Elvehjem homogenizer followed by centrifugation at 1000×g for 10 minutes. The supernatants were saved on ice and used immediately. Transporter activity at NET was assessed using 10 nM [^3H]norepinephrine. The assay buffer was Krebs-phosphate buffer containing 154.4 mM NaCl, 2.9 mM KCl, 1.1 mM CaCl2, 0.83 mM MgCl2, 5 mM glucose, 1 mg/mL ascorbic acid, and 50 μM pargyline. […] Uptake inhibition assays were conducted at 37° C. and were initiated by adding 100 μL of tissue to 900 μL assay buffer containing test drug and [^3H]norepinephrine. Test drugs were diluted in assay buffer containing 1 mg/mL bovine serum albumin. Nonspecific uptake was measured by incubating in the presence of 10 μM indatraline. The reactions were stopped after 10 minutes by rapid vacuum filtration with a cell harvester (BRANDEL) over GF/B filters (Whatman) presoaked in wash buffer maintained at 25° C. (10 mM Tris-HCl, pH 7.4/150 mM NaCl). Filters were rinsed with 6 mL wash buffer and retained tritium was quantified by a MicroBeta liquid scintillation counter (PerkinElmer) after overnight extraction in 0.6 mL of liquid scintillation cocktail (Cytoscint, ICN). The data from three experiments were pooled and fit to a dose-response curve equation (using Kaleidagraph), to yield an Emax and EC50 value.

Chain of dopamine transporter (DAT) (P23977 whole entry): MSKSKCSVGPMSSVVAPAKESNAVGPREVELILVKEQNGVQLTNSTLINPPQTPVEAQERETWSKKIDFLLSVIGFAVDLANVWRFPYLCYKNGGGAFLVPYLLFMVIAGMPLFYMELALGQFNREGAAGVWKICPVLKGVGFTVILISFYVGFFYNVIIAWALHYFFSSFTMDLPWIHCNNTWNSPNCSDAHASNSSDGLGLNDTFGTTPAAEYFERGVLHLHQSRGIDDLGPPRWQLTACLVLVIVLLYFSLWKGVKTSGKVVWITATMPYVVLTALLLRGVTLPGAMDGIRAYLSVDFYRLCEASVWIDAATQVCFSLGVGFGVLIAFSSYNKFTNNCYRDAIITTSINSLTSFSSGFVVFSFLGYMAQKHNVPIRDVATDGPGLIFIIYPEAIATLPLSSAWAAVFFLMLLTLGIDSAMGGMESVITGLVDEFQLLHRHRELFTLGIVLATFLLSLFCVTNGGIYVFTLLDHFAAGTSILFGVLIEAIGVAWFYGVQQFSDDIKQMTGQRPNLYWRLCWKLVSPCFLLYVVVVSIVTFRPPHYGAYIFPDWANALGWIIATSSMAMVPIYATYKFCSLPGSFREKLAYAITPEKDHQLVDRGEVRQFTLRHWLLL
Chain of DAT (P23977 whole entry): as above
Chain of norepinephrine transporter (NET) (Q63380 1-617): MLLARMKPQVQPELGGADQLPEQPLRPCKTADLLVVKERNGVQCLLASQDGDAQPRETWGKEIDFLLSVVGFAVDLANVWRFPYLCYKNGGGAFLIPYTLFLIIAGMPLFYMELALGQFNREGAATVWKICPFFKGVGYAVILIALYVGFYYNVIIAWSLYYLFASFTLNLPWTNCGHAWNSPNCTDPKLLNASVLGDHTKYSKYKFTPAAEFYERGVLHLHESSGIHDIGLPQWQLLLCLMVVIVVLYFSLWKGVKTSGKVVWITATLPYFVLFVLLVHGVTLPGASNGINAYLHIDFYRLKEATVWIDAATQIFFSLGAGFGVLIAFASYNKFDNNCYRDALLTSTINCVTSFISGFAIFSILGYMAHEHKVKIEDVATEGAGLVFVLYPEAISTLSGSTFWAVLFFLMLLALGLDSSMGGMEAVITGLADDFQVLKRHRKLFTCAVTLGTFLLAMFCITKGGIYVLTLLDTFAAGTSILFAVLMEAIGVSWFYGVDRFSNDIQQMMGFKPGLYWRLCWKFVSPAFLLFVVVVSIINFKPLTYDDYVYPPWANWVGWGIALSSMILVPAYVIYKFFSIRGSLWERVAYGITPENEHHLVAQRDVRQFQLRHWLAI
Chain of serotonin transporter (SERT) (P31652 whole entry): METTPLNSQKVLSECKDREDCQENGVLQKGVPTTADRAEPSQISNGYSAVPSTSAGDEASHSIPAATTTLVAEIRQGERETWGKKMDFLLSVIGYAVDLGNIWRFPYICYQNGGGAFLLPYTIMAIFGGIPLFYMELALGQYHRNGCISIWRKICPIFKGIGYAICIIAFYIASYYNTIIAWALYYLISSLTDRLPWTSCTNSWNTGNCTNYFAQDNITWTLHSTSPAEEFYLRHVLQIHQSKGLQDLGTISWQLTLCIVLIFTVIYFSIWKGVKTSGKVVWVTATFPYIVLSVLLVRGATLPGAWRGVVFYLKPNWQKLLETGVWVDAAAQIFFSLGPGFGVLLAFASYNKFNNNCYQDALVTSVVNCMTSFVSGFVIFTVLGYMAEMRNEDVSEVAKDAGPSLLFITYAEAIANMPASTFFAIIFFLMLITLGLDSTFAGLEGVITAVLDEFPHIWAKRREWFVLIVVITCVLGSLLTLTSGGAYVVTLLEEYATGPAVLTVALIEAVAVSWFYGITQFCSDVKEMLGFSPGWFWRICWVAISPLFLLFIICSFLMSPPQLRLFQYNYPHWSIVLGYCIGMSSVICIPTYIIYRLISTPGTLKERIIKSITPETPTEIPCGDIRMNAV

| SMILES | Emax (DAT) [%] | IC50 (DAT) [µM] | Emax [1] [%] | Emax [2] [%] | Emax [3] [%] | IC50 [3] [µM] | DA Uptake Emax [1] [% I] | EC50 [1] [µM] | 5HT Uptake Emax [2] [% I] | EC50 [2] [µM] | NE Uptake Emax [3] [% I] | EC50 [3] [µM] |
| --- | --- | --- | --- | --- | --- | --- | --- | --- | --- | --- | --- | --- |
| CSc1ncc(-c2nc(NCC(c3ccccc3)c3ccccc3)c3ccccc3n2)cn1 [SRI-29338] | 63 ± 4 | 1.18 ± 0.93 | 71 ± 2 | 52 ± 3 | 62 ± 3 | 0.204 ± 0.047 | – | – | – | – | – | – |
| CS(=O)(=O)Nc1ccc(-c2nc(NCC(c3ccccc3)c3ccccc3)c3ccccc3n2)c(Cl)c1 [Compound 53, N-(3-chloro-4-(4-((2,2-diphenylethyl)amino)quinazolin-2-yl)phenyl)methanesulfonamide] | 30 ± 3 | – | 67 ± 1 | 51 ± 2 | 67 ± 2 | 0.047 ± 0.01 | – | – | – | – | – | – |
| c1ccc(C(CNc2nc(-c3cnc4nccn4c3)nc3ccccc23)c2ccccn2)cc1 (stereo not shown) [SRI-30507] | 62 ± 7 | 4.8 ± 1.81 | 71 ± 2 | 54 ± 2 | 77 ± 2 | 0.132 ± 0.016 | – | – | – | – | – | – |
| Cn1cc2cc(-c3nc(NCC(c4ccccc4)c4ccccc4)c4ccccc4n3)ccc2n1 [SRI-29776] | 58 ± 3 | 6.09 ± 0.97 | 69 ± 2 | 61 ± 2 | 71 ± 3 | 0.229 ± 0.043 | – | – | – | – | – | – |
| c1ccc(C(CNc2nc(-c3ccc4nccn4c3)nc3ccccc23)C2CCCCC2)cc1 (stereo not shown) [SRI-30513] | 50 ± 4 | 2.97 ± 1.03 | 72 ± 2 | 59 ± 4 | 65 ± 4 | 0.153 ± 0.055 | – | – | – | – | – | – |
| CN(C)c1ncc(-c2nc(NCC(O)(c3ccccc3)c3ccccc3)c3ccccc3n2)cn1 [SRI-29982] | 47 ± 6 | 2.46 ± 1.21 | 73 ± 2 | 51 ± 1 | 71 ± 2 | 0.259 ± 0.041 | – | – | – | – | – | – |
| c1ccc(C(CNc2nc(-c3ccc4nccn4c3)nc3ccccc23)c2cccnc2)cc1 (stereo not shown) [SRI-30946] | 44 ± 3 | 1.17 ± 0.32 | 70 ± 2 | 59 ± 3 | 75 ± 3 | 0.078 ± 0.017 | – | – | – | – | – | – |
| CNc1ncc(-c2nc(NCC(c3ccccc3)c3ccccc3)c3ccccc3n2)cn1 [SRI-29554] | 59 ± 6 | 0.98 ± 0.46 | 71 ± 1 | 60 ± 3 | 78 ± 2 | 0.179 ± 0.027 | – | – | – | – | – | – |
| OC(CNc1nc(-c2cnc3nccn3c2)nc2ccccc12)(c1ccccc1)c1ccccc1 [SRI-30508] | 34 ± 3 | 0.15 ± 0.09 | 65 ± 1 | 56 ± 1 | 76 ± 9 | 0.069 ± 0.018 | – | – | – | – | – | – |
| OC(CNc1nc(-c2ccc3[nH]ccc3c2)nc2ccccc12)(c1ccccc1)c1ccccc1 [SRI-29983] | 55 ± 3 | 1.29 ± 0.34 | 70 ± 2 | 57 ± 2 | 73 ± 6 | 0.203 ± 0.079 | – | – | – | – | – | – |
| Cc1cc(NS(C)(=O)=O)ccc1-c1nc(NCC(c2ccccc2)c2ccccc2)c2ccccc2n1 [Compound 52, N-(4-(4-((2,2-diphenylethyl)amino)quinazolin-2-yl)-3-methylphenyl)methanesulfonamide] | 60 ± 7 | – | 60 ± 2 | 50 ± 2 | 65 ± 3 | 0.144 ± 0.03 | – | – | – | – | – | – |
| Cc1cc(NS(C)(=O)=O)ccc1-c1nc(NCC(c2ccccc2)c2ccncc2)c2ccccc2n1 (stereo not shown) [Compound 29, N-(3-methyl-4-(4-((2-phenyl-2-(pyridin-4-yl)ethyl)amino)quinazolin-2-yl)phenyl)methanesulfonamide] | 72 ± 7 | 3.15 ± 1.11 | 74 ± 4 | 58 ± 3 | 71 ± 3 | 0.031 ± 0.007 | 74 ± 4 | 0.0074 ± 0.002 | 58 ± 3 | 0.008 ± 0.0028 | 71 ± 3 | 0.031 ± 0.007 |
| CS(=O)(=O)Nc1ccc(-c2nc(NCC(O)(c3ccccc3)c3ccccc3)c3ccccc3n2)cc1 [Compound 4, N-(4-(4-((2-hydroxy-2,2-diphenylethyl)amino)quinazolin-2-yl)phenyl)methanesulfonamide] | 47 ± 7 | 0.97 ± 0.65 | 70 ± 2 | 55 ± 3 | 70 ± 2 | 0.426 ± 0.049 | 70 ± 2 | 0.011 ± 0.002 | 55 ± 3 | 0.05 ± 0.014 | 70 ± 2 | 0.426 ± 0.049 |
